How the values were obtained:
Format in all cases: functional
SF-268 [1] = assay: In vitro percent of proliferation of vehicle treated SF-268 human CNS cell lines was determined at 0.0010 M concentration
MCF7 [2] = assay: In vitro percent of proliferation of vehicle treated MCF-7 human breast cell lines was determined at 0.0010 M concentration
NCI-H460 [3] = assay: In vitro percent of proliferation of vehicle treated NCI-H460 human lung cell lines was determined at 0.0010 M concentration
NCI-H522 = assay: Growth inhibitory activity against non small cell lung cancer H522 cell line was determined; details: Homo sapiens
EKVX = assay: Growth inhibitory activity against non small cell lung cancer EKVX cell line was determined; details: Homo sapiens
786-0 = assay: Growth inhibitory activity against Renal cancer 786-0 cell line was determined; details: Homo sapiens
HCT-15 = assay: Growth inhibitory activity against colon cancer HCT-15 cell line was determined; details: Homo sapiens
SF-539 = assay: Growth inhibitory activity against CNS cancer SF-539 cell line was determined; details: Homo sapiens
NCI-H460 [4] = assay: Growth inhibitory activity against non small cell lung cancer H460 cell line was determined; details: Homo sapiens
BT-549 = assay: Growth inhibitory activity against Breast cancer BT-549 cell line was determined; details: Homo sapiens
MDA-MB-231 = assay: Growth inhibitory activity against Breast cancer MDA-MB-231/ATCC cell line was determined; details: Homo sapiens
UACC-257 = assay: Growth inhibitory activity against Melanoma UACC-257 cell line was determined; details: Homo sapiens
UACC-62 = assay: Growth inhibitory activity against Melanoma UACC-62 cell line was determined; details: Homo sapiens
PC-3 = assay: Growth inhibitory activity against Prostate cancer PC-3 cell line was determined; details: Homo sapiens
HOP-92 = assay: Growth inhibitory activity against non small cell lung cancer HOP-92 cell line was determined; details: Homo sapiens
HL-60 = assay: Growth inhibitory activity against Leukemia HL-60(TB) cell line was determined; details: Homo sapiens
M14 = assay: Growth inhibitory activity against Melanoma M14 cell line was determined; details: Homo sapiens
OVCAR-3 = assay: Growth inhibitory activity against Ovarian cancer OVCAR-3 cell line was determined; details: Homo sapiens
SW-620 = assay: Growth inhibitory activity against colon cancer SW-620 cell line was determined; details: Homo sapiens
A549 = assay: Growth inhibitory activity against non small cell lung cancer A549/ATCC cells; details: Homo sapiens
MOLT-4 = assay: Growth inhibitory activity against Leukemia MOLT-4 cell line was determined; details: Homo sapiens
ACHN = assay: Growth inhibitory activity against Renal cancer ACHN cell line was determined; details: Homo sapiens
CCRF-CEM = assay: Growth inhibitory activity against Leukemia CCRF-CEM cell line was determined; details: Homo sapiens
OVCAR-5 = assay: Growth inhibitory activity against Ovarian cancer OVCAR-5 cell line was determined; details: Homo sapiens
MCF7 [5] = assay: Growth inhibitory activity against Breast cancer MCF-7 cell line was determined; details: Homo sapiens
NCI-H322M = assay: Growth inhibitory activity against non small cell lung cancer NCI-H322M cell line was determined; details: Homo sapiens
CAKI-1 = assay: Growth inhibitory activity against Renal cancer CAKI-1 cell line was determined; details: Homo sapiens
SN12C = assay: Growth inhibitory activity against Renal cancer SN12C cell line was determined; details: Homo sapiens
SK-MEL-5 = assay: Growth inhibitory activity against Melanoma SK-MEL-5 cell line was determined; details: Homo sapiens
TK-10 = assay: Growth inhibitory activity against Renal cancer TK-10 cell line was determined; details: Homo sapiens
Hs-578T = assay: Growth inhibitory activity against Breast cancer HS 578T cell line was determined; details: Homo sapiens
SF-295 = assay: Growth inhibitory activity against CNS cancer SF-295 cell line was determined; details: Homo sapiens
MDA-MB-435 = assay: Growth inhibitory activity against Breast cancer MDA-MB-435 cell line was determined; details: Homo sapiens
SF-268 [6] = assay: Growth inhibitory activity against CNS cancer SF-268 cell line was determined; details: Homo sapiens
OVCAR-8 = assay: Growth inhibitory activity against Ovarian cancer OVCAR-8 cell line was determined; details: Homo sapiens
NCI-H23 = assay: Growth inhibitory activity against non small cell lung cancer NCI-H23 cell line was determined; details: Homo sapiens
HCC 2998 = assay: Growth inhibitory activity against colon cancer HCC2998 cell line was determined; details: Homo sapiens
NCI/ADR-RES = assay: Growth inhibitory activity against Breast cancer NCI/ADR-RES cell line was determined; details: Homo sapiens
SR = assay: Growth inhibitory activity against Leukemia SR cell line was determined; details: Homo sapiens
K562 = assay: Growth inhibitory activity against Leukemia K-562 cell line was determined; details: Homo sapiens
KM12 = assay: Growth inhibitory activity against colon cancer KM12 cell line was determined; details: Homo sapiens
RPMI-8226 = assay: Growth inhibitory activity against Leukemia RPMI-8226 cell line was determined; details: Homo sapiens
DU-145 = assay: Growth inhibitory activity against Prostate cancer DU-145 cell line was determined; details: Homo sapiens
NCI-H226 = assay: Growth inhibitory activity against non small cell lung cancer NCI-H226 cell line was determined; details: Homo sapiens
HOP-62 = assay: Growth inhibitory activity against non small cell lung cancer HOP-62 cell line was determined; details: Homo sapiens
HCT-116 = assay: Growth inhibitory activity against colon cancer HCT116 cell line was determined; details: Homo sapiens
U-251 = assay: Growth inhibitory activity against CNS cancer U251 cell line was determined; details: Homo sapiens
SK-MEL-28 = assay: Growth inhibitory activity against Melanoma SK-MEL-28 cell line was determined; details: Homo sapiens
SNB-19 = assay: Growth inhibitory activity against CNS cancer SNB-19 cell line was determined; details: Homo sapiens
COLO 205 = assay: Growth inhibitory activity against colon cancer COLO 205 cell line was determined; details: Homo sapiens
LOX IMVI = assay: Growth inhibitory activity against Melanoma LOX IMVI cell line; details: Homo sapiens
RXF 393 = assay: Growth inhibitory activity against Renal cancer RXF 393 cell line was determined; details: Homo sapiens
HT-29 = assay: Growth inhibitory activity against colon cancer HT-29 cell line was determined; details: Homo sapiens

O=C(O)c1ccccc1Nc1ccnc(C(F)(F)F)c1
Proliferation (SF-268 [1]): 102% | Proliferation (MCF7 [2]): 105% | Proliferation (NCI-H460 [3]): 100%

O=C(Oc1ccc(Cl)cc1)c1ccccc1Nc1ccnc(C(F)(F)F)c1
GI50 (NCI-H522): 4.3 µM | GI50 (EKVX): 25 µM | GI50 (786-0): 2.7 µM | GI50 (HCT-15): 2.1 µM | GI50 (SF-539): 15 µM | GI50 (NCI-H460 [4]): 10 µM | GI50 (BT-549): 15 µM | GI50 (MDA-MB-231): 1.8 µM | GI50 (UACC-257): 4.5 µM | GI50 (UACC-62): 2.6 µM | GI50 (PC-3): 17 µM | GI50 (HOP-92): 21 µM | GI50 (HL-60): 6.4 µM | Proliferation (SF-268 [1]): 28% | GI50 (M14): 2.1 µM | GI50 (OVCAR-3): 11 µM | GI50 (SW-620): 6.6 µM | GI50 (A549): 15 µM | GI50 (MOLT-4): 100 µM | GI50 (ACHN): 11 µM | Proliferation (MCF7 [2]): 24% | GI50 (CCRF-CEM): 4.9 µM | GI50 (OVCAR-5): 26 µM | GI50 (MCF7 [5]): 3.7 µM | GI50 (NCI-H322M): 17 µM | GI50 (CAKI-1): 2.3 µM | GI50 (SN12C): 3 µM | GI50 (SK-MEL-5): 17 µM | GI50 (TK-10): 18 µM | GI50 (Hs-578T): 30 µM | GI50 (SF-295): 63 µM | GI50 (MDA-MB-435): 2.1 µM | GI50 (SF-268 [6]): 4.4 µM | GI50 (OVCAR-8): 4.1 µM | GI50 (NCI-H23): 2.8 µM | Proliferation (NCI-H460 [3]): 9% | GI50 (HCC 2998): 13 µM | GI50 (NCI/ADR-RES): 16 µM | GI50 (SR): 4 µM | GI50 (K562): 3.6 µM | GI50 (KM12): 8.9 µM | GI50 (RPMI-8226): 2.9 µM | GI50 (DU-145): 19 µM | GI50 (NCI-H226): 2.9 µM

O=C(Oc1cccc(Cl)c1)c1ccccc1Nc1ccnc(C(F)(F)F)c1
GI50 (NCI-H522): 4.2 µM | GI50 (EKVX): 22 µM | GI50 (786-0): 3.5 µM | GI50 (HCT-15): 3.7 µM | GI50 (HOP-62): 25 µM | GI50 (SF-539): 2.8 µM | GI50 (NCI-H460 [4]): 11 µM | GI50 (BT-549): 6.8 µM | GI50 (MDA-MB-231): 1.7 µM | GI50 (HCT-116): 1.6 µM | GI50 (UACC-62): 2 µM | GI50 (PC-3): 7.4 µM | GI50 (HOP-92): 8.7 µM | GI50 (HL-60): 13 µM | Proliferation (SF-268 [1]): 5% | GI50 (M14): 1.8 µM | GI50 (OVCAR-3): 3.8 µM | GI50 (SW-620): 4.4 µM | GI50 (A549): 18 µM | GI50 (MOLT-4): 0.93 µM | Proliferation (MCF7 [2]): 12% | GI50 (CCRF-CEM): 0.89 µM | GI50 (OVCAR-5): 14 µM | GI50 (MCF7 [5]): 4.8 µM | GI50 (NCI-H322M): 23 µM | GI50 (CAKI-1): 2.1 µM | GI50 (SN12C): 3 µM | GI50 (SK-MEL-5): 2.6 µM | GI50 (TK-10): 85 µM | GI50 (Hs-578T): 21 µM | GI50 (SF-295): 18 µM | GI50 (MDA-MB-435): 3 µM | GI50 (SF-268 [6]): 3 µM | GI50 (OVCAR-8): 3.5 µM | GI50 (NCI-H23): 2.4 µM | Proliferation (NCI-H460 [3]): 3% | GI50 (HCC 2998): 3.5 µM | GI50 (NCI/ADR-RES): 2.2 µM | GI50 (SR): 0.44 µM | GI50 (K562): 3.2 µM | GI50 (KM12): 9.5 µM | GI50 (RPMI-8226): 1.8 µM | GI50 (DU-145): 14 µM | GI50 (NCI-H226): 2.1 µM

O=C(Oc1c(Cl)cc(Cl)cc1Cl)c1ccccc1Nc1ccnc(C(F)(F)F)c1
GI50 (NCI-H522): 5.7 µM | GI50 (EKVX): 3.3 µM | GI50 (786-0): 2.9 µM | GI50 (HCT-15): 2.7 µM | GI50 (U-251): 3 µM | GI50 (HOP-62): 2.7 µM | GI50 (NCI-H460 [4]): 3.4 µM | GI50 (BT-549): 2.4 µM | GI50 (SK-MEL-28): 24 µM | GI50 (SNB-19): 7.1 µM | GI50 (MDA-MB-231): 3.2 µM | GI50 (HCT-116): 1.7 µM | GI50 (UACC-257): 12 µM | GI50 (UACC-62): 1.7 µM | GI50 (PC-3): 15 µM | GI50 (HOP-92): 100 µM | GI50 (HL-60): 3.9 µM | Proliferation (SF-268 [1]): 55% | GI50 (M14): 2.1 µM | GI50 (OVCAR-3): 4.3 µM | GI50 (SW-620): 4.6 µM | GI50 (A549): 3.9 µM | GI50 (COLO 205): 6.3 µM | GI50 (MOLT-4): 100 µM | GI50 (LOX IMVI): 2 µM | GI50 (RXF 393): 9.5 µM | GI50 (ACHN): 2.4 µM | Proliferation (MCF7 [2]): 12% | GI50 (OVCAR-5): 4.1 µM | GI50 (MCF7 [5]): 4.7 µM | GI50 (NCI-H322M): 20 µM | GI50 (CAKI-1): 7.1 µM | GI50 (SN12C): 3.1 µM | GI50 (SK-MEL-5): 3.1 µM | GI50 (TK-10): 3.4 µM | GI50 (Hs-578T): 2.6 µM | GI50 (SF-295): 4.2 µM | GI50 (MDA-MB-435): 1.6 µM | GI50 (SF-268 [6]): 3.9 µM | GI50 (OVCAR-8): 3 µM | GI50 (NCI-H23): 2.6 µM | Proliferation (NCI-H460 [3]): 9% | GI50 (K562): 2.4 µM | GI50 (KM12): 4.1 µM | GI50 (HT-29): 4.6 µM | GI50 (NCI-H226): 5.9 µM

From ChEMBL document CHEMBL1138648, “Synthesis of new N-(2-(trifluoromethyl)pyridin-4-yl)anthranilic acid derivatives and their evaluation as anticancer agents” (2004)
